Test results: US8597664B2, “Endogenous adjuvant molecules and uses thereof” (University of Massachusetts, priority 2003, dated 2013)

Columns and labels:
EL4 cells = assay: Uric acid measurement in the cytosol of treated cells; format: cell-based; settings: 25 μg/ml cycloheximide or 8 μM emetine, after 5 hours; untreated cells below limit of detection
Description: EL4 cells (10^8) were resuspended in 5 ml of culture media and incubated at 37° C. for 5 hours after being treated for one hour with emetine^16 or cycloheximide or heat shocked for 20 minutes at 45° C. (see FIG. 3J). 3T3 cells grown in 15 cm dishes were either untreated or exposed to UV light for 5 minutes and incubated in 5 hours. The cells were suspended without washing and disrupted by nitrogen cavitation followed by centrifugation, as described.^16 The resulting supernatants were diluted with 0.1 M borate, and analyzed for uric acid content using a uric acid detection kit (Molecular Probes).
EL4 cells were either heat shocked for 20 minutes at 45° C., incubated with 25 μg/ml cycloheximide, incubated with 8 μM emetine or untreated as control. 3T3 cells were either UV-irradiated or untreated as control. These treatments were previously shown by the instant inventors to increase adjuvant activity. The amount of uric acid in the cytosol of the treated cells was determined after 5 hours of incubation. […] An approximately 4-fold increase in uric acid was also observed when 3T3 cells were treated with UV (FIG. 3J).

[1] = reported (ref. 18); cited from earlier work
[2] = system: CD8 T cell (CTL) responses to particulate HIV gp120 antigen; assay: CTL priming after co-injection of adjuvant with gp120/latex beads (51Cr-release CTL assay); format: in vivo, Balb/c mice
Description: Immunization of mice with antigen-polystyrene beads (2-10 μg) +/− cytosolic fractions and assays for the priming of CTL were performed as previously described ^16. Fractions from the GF-250 column were injected without further manipulation, while fractions from all other columns were dried and reconstituted to normal osmolarity before injection. Fractions from 1%-10% of liver cytosol were typically injected into mice. Pooled fractions without adjuvant activity were standardly used as negative controls. For in vitro stimulation, splenocytes from immunized mice were stimulated directly with 10^−8 M peptide (RGPGRAFVTL-SEQ ID NO: 1 or SIINFEKL-SEQ ID NO: 2) and were then assayed as previously described.^16
Each four consecutive fractions (4 minutes) were pooled and tested for their ability to augment the priming of CD8 T cell responses when co-injected with particulate HIV gp120 antigen. After 14 days, splenocytes were harvested from the primed animals and were stimulated ex vivo with either antigen-transfected or peptide-pulsed syngeneic cells. The re-stimulated cells were then assayed for their ability to kill antigen-bearing target cells in a standard ^51Cr-release as say.^16
To further evaluate this point, highly purified uric acid was tested for adjuvant activity. Highly purified uric acid (50 μg), highly purified LMW fraction from a C18 column, or PBS as control were mixed with 5 μg gp120/latex beads in 100 μl of saline and injected into two Balb/c mice. CTL from these mice were assayed for killing of 15.12 (gp120-transfected 3T3) cells (filled triangles), or vector-transfected control 3T3 cells (open squares). Results from individual mice are presented (FIG. 3A-C, wherein % Lysis indicates the degree of cell killing and the E:T ratio indicates the ratio of Effector cell:Target cell, e.g., the ratio of cytotoxic T-cell: antigen positive target cell).
To determine more precisely the amount of uric acid necessary to provide an adjuvant effect in vivo, the amount of uric acid injected into mice was titrated from 2.5-40 μg (in 100 μl; from a concentration of 25-400 μg/ml) and adjuvant activity assayed as described in Example II above. […] This amount of uric acid is produced by about 2×10^6 UV-treated 3T3 cells (See FIG. 3J).
To further evaluate the activity of xanthine crystals, xanthine crystals were tested for adjuvant activity in experiments carried out similarly to those described in Example II above. Highly purified uric acid (500 μg), highly purified xanthine (500 μg), or PBS as control were mixed with 2 μg gp120/latex beads in 100 μl of saline and injected into two Balb/c mice. CTL from these mice were assayed for killing of 15.12 (gp120-transfected 3T3) cells (filled squares). Results from individual mice are presented (FIG. 6A-C), wherein % Lysis indicates the degree of cell killing and the E:T ratio indicates the ratio of Effector cell:Target cell, e.g., the ratio of cytotoxic T-cell:antigen presenting cell.

[3] = system: bone marrow-derived dendritic cells (CD11c+); assay: Expression of CD80 and CD86 on bone marrow-derived dendritic cells by flow cytometry; format: cell-based, Balb/c mice
Description: (§1) Bone marrow was cultured for 7 days in media containing 10 u/ml of both GM-CSF and IL-4, as previously described.^24 Fresh media (50% volume) containing cytokines was added at the 4th day of culture. At day 7, floating cells were removed by aspiration after gentle rocking, and soluble or crystalline uric acid was added. Following a 6 hour incubation, the media was gently removed and replaced with PBS containing either 0.5% heparin (sigma) or 0.5 μM polyvinyl sulfate (100 KD, Sigma) in order to detach bound crystals. Following a 10 minute incubation, cells were gently removed by scraping, washed once in 50 ml of media and 3 times with 50 ml of PBS in order to dissolve any remaining crystals, and then stained and assayed by flow cytometry as previously described.^15 To quantify MSU crystal formation in culture, a parallel set of wells was prepared without dendritic cells, and the crystals harvested by centrifugation, washed with absolute alcohol and dissolved in 0.1N NaOH. The amount of uric acid in the solubilized precipitates was determined by measuring UV absorption at 292 nm against a set of standard uric acid/NaOH solutions.
Accordingly, the effect of uric acid on expression of costimulators on cultured dendritic cells was tested. Uric acid was added to cultures of primary bone-marrow derived dendritic cells. Specifically, bone marrow-derived dendritic cells from Balb/c mice in 6 well plates were untreated (thin continuous line) or incubated with 20 μl of pre-formed MSU crystals (about 1.2 mg/ml final concentration) for 6 hours (heavy dashed lines) or 24 hours (heavy continuous lines). The expression of CD80 and CD86 on CD11c+ cells was then analyzed by flow cytometry.
Based upon the results set forth in Examples I-VI which identify MSU crystals as having adjuvant activity, it was concluded that other crystals with similar properties should display djuvant activity. […] The expression of CD86 on CD11c+ cells was then analyzed by flow cytometry.

[4] = Precipitation of uric acid to MSU crystals; format: physicochemical; settings: uric acid 70 μg/ml
Description: as §1
As discussed in Example III, LPS has a stimulatory activity and is frequently a contaminant of reagents. Dendritic cells from the TLR4-null mice were examined to verify that LPS was not the source of the observed stimulatory activity. […]

[5] = system: CD8 T cell (CTL) responses to particulate HIV gp120 antigen; assay: CTL priming after co-injection with antigen in LPS-nonresponsive TLR4 null mice; format: in vivo, C.C3H lps-d (TLR4-/-) mice; settings: injected together with antigen
Description: Lipopolysaccharide (LPS) has potent immunostimulatory activity and is a frequent contaminant of buffers and other reagents. Although every attempt was made to avoid contamination of preparations with endotoxin, it was important to exclude the possibility that LPS was present in the LMW fraction and responsible for the adjuvant activity. Accordingly, similar experiments to those of Example II were carried out except that purified LMW fraction or commercially-obtained highly purified uric acid was injected together with antigen into toll-like receptor 4 (TLR4) null mice, which are nonresponsive to LPS. Specifically, congenic C.C3H lps-d (TLR4−/−) mice were used in place of Balb/c (TLR4+/+) mice.

[6] = Toxicity observed in the Examples; format: in vivo; settings: as used in the Examples
Description: With respect to potential toxicity of the crystalline adjuvant, local reaction to injections or other morbidity of animals immunized with any adjuvant within the scope of the invention, e.g., a crystalline adjuvant, can be readily determined. With respect to the crystalline adjuvants of the present invention displaying characteristics similar to uric acid or xanthine, significant toxicity is not expected. […] Uric acid and xanthine are normal components of mammals and local administration should be relatively safe. Uric acid is effective when injected subcutaneously, which is an effective and well tolerated immunization protocol. Uric acid and xanthine thus have favorable characteristics for an adjuvant, and crystalline molecules having similar characteristics, such as those described herein, are also expected to behave favorably as immune adjuvants.

dendritic cells = assay: Expression of CD80 and CD86 on dendritic cells from TLR4+/+ or TLR4-/- mice; format: cell-based, C57BL/6 (TLR4+/+) or C.C3H lps-d (TLR4-/-) mice; settings: 6 hours
Description: as §1
As discussed in Example III, LPS has a stimulatory activity and is frequently a contaminant of reagents. Dendritic cells from the TLR4-null mice were examined to verify that LPS was not the source of the observed stimulatory activity.

## CC[C@H]1CN2CCc3cc(OC)c(OC)cc3[C@@H]2C[C@@H]1C[C@H]1NCCc2cc(OC)c(OC)cc21 [emetine]
EL4 cells
  uric acid in the cytosol of treated EL4 cells: increased dramatically

## O=c1[nH]c(=O)c2[nH]c(=O)[nH]c2[nH]1 [uric acid]
[1]
  concentration at which uric acid precipitates in vivo: > 70 µg/mL
[2]; 50 μg uric acid mixed with 5 μg gp120/latex beads in 100 μl saline
  CTL priming: enhanced CTL priming to a similar degree as the purified LMW fraction
[2]; 10-50 μg of uric acid in 100 μl
  adjuvant effect: strong adjuvant effect
[2]; titrated from 2.5-40 μg in 100 μl
  amount of uric acid providing an adjuvant effect when injected in vivo: about 10 μg
[2]; titrated from 25-400 μg/ml, 100 μl injected
  concentration of uric acid providing an adjuvant effect when injected in vivo: ~100 µg/mL
[3]; 20 μl pre-formed MSU crystals (about 1.2 mg/ml final), 6 or 24 hours
  expression of CD86 on CD11c+ dendritic cells: markedly and rapidly
[3]; uric acid titrated in culture, 24 hours
  correlation of dendritic cell activation (CD86) with crystal formation: stimulated at precisely the concentrations of uric acid that led to crystal formation
[4]
  crystal precipitation in dendritic cell culture: crystals do not precipitate within 6 hours
[5]
  adjuvant activity in LPS-nonresponsive mice: had adjuvant activity
[6]
  toxicity: have not been observed

## C[C@@H]1C[C@@H]([C@H](O)CC2CC(=O)NC(=O)C2)C(=O)[C@@H](C)C1 [cycloheximide]
EL4 cells
  uric acid in the cytosol of treated EL4 cells: increased dramatically

## O=c1[nH]c(=O)c2[nH]c([O-])nc2[nH]1.[Na+] [MSU crystals, monosodium urate]
[2]; preformed MSU crystals
  activity of preformed crystals injected in vivo: active
Dendritic cells; C.C3H lps-d (TLR4-/-) cells
  stimulatory effect on dendritic cells from TLR4-null mice: the stimulatory effect was also found
Dendritic cells; MSU crystals about 1.2 mg/ml versus 1 μg/ml LPS
  stimulatory effect on dendritic cells (CD80, CD86) compared with LPS: stronger than that induced by high concentrations of LPS
Dendritic cells; preformed MSU crystals about 1.2 mg/ml, soluble uric acid 70 μg/ml
  stimulation of dendritic cells in vitro, preformed crystals versus soluble uric acid: highly stimulatory

## O=c1[nH]c(=O)c2[nH]cnc2[nH]1 [xanthine]
[2]; 500 μg crystals mixed with 2 μg gp120/latex beads in 100 μl saline
  CTL priming: enhanced CTL priming to a similar degree as the MSU crystals
[3]; pre-formed crystals at 300 μg/ml final concentration, 6 hours
  expression of CD86 on CD11c+ dendritic cells: increase their expression of CD86 markedly
[6]
  toxicity: have not been observed
